Where “and” joins values, the source holds several entries; their conditions need not be identical. Equal entries are not always repeated.
Experiments:
Pontoscolex corethrurus = conditions: acute; mortality
Rattus norvegicus = conditions: for LD50: acute
Apis mellifera = conditions: acute, mortality
Oncorhynchus mykiss = conditions: acute; duration: 96 hours; mortality
Canidae = conditions: chronic; duration: 125 days; Dog Other; growth
Colinus virginianus = conditions: for LD50: acute, oral
Bovidae = conditions: subchronic; duration: 57 days; oral; diet; no effects
Anas platyrhynchos = conditions: oral, mortality
Mus musculus = conditions: chronic; duration: 82 weeks; oral; diet; M/F; neurology
[1] = chronic, duration: 2 years, oral, diet
[2] = short-term, duration: 28 days, mortality
[3] = reproduction developmental, clinical signs

## O=C([O-])c1ccccc1.[Na+] [Sodium benzoate]
Sus scrofa; repeat dose other, oral, diet, M/F, Not specified, no effects
  LEL: 36000 mg/kg-day
Sus scrofa; subchronic, duration: 36 days, oral, diet, Duroc, body weight
  LEL: 36000 mg/kg-day
Sus scrofa; subchronic, duration: 42 days, oral, diet, Not specified, body weight
  LEL: 36000 mg/kg-day

## Cc1cccc2nccnc12 [5-Methylquinoxaline]
Pontoscolex corethrurus
  LC50: 272 mg/kg

## CSCc1ccsc1 [3-(Methylthio)methylthiophene]
Repeat dose other
  NOAEL: 0.29 mg/kg-day
Rattus norvegicus; subchronic, duration: 90 days
  NOAEL: 0.29 mg/kg-day

## CCCC(=O)C(CC)Sc1ccoc1C (configuration not stated) [3-(2-Methyl-3-furylthio)-4-heptanone]
subchronic, duration: 90 days
  NOAEL: 3.76 mg/kg-day
Rattus norvegicus; subchronic, duration: 90 days, oral, diet
  NOAEL: 3.76 mg/kg-day
Rattus norvegicus; subchronic, duration: 90 days, oral, diet, M/F, no effects
  NOAEL: 3.76 mg/kg-day

## CCCCC(CC)COC(=O)C1CCC(C(=O)OCC(CC)CCCC)CC1 (configuration not stated) [Bis(2-ethylhexyl) cyclohexane-1,4-dicarboxylate]
subchronic, duration: 90 days, oral, no effects
  NOAEL: 1000 mg/kg-day

## CC(O)C(=O)[O-].CC(O)C(=O)[O-].[Ca+2] (configuration not stated) [Calcium lactate]
Gallus gallus; subchronic, duration: 42 days, oral, diet, Chicken, no effects
  LEL: 30000 mg/kg-day

## CN1CCCC1 [N-Methylpyrrolidine]
Reproduction developmental
  NOAEL: 50 mg/kg-day
Rattus norvegicus; [1]
  NOAEL: 50 mg/kg-day
Rattus norvegicus; [2]
  NOAEL: 50 mg/kg-day

## C1CCC(SSC2CCCCC2)CC1 [Dicyclohexyl disulfide]
subchronic, duration: 90 days, oral
  NOAEL: 0.23 mg/kg-day

## N#Cc1nn(-c2c(Cl)cc(C(F)(F)F)cc2Cl)c(N)c1S(=O)C(F)(F)F (configuration not stated) [Fipronil]
Apis mellifera; dermal
  LD50: 0.00593 µg/piece
Apis mellifera; oral, unspecified
  LD50: 0.00417 µg/piece

## [Ca+2].[I-].[I-].[O-2].[O-2].[O-2].[O-2].[O-2].[O-2] [Iodic acid (HIO3), calcium salt (2:1)]
Gallus gallus; repeat dose other, no effects
  LEL: 5 mg/kg-day
Gallus gallus; subchronic, duration: 35 days, oral, diet, M, no effects
  LEL: 5 mg/kg-day
Sus scrofa; repeat dose other, Not specified, no effects
  LEL: 8 mg/kg-day
Sus scrofa; short-term, Not specified, no effects
  LEL: 8 mg/kg-day

## C=CCc1ccc(O)c(OC)c1 [Eugenol]
Oncorhynchus mykiss
  LC50: 5.6 µg/mL and > 10 µg/mL
Oryctolagus sp.; [3]
  NOAEL: 100 mg/kg-day
Rattus norvegicus; oral, mortality
  LD50: 1930 mg/kg
Rattus norvegicus; chronic, duration: 2 years, body weight
  NOAEL: 300 mg/kg-day
Rattus norvegicus; developmental, development
  NOEL: 250 mg/kg-day
Rattus norvegicus; [3]
  NOAEL: 100 mg/kg-day

## O=C(O)c1cn[nH]c1C(F)F [1H-3-Difluoromethylpyrazole-4-carboxylic acid]
Oryctolagus sp.; reproduction developmental, body weight
  NOAEL: 300 mg/kg-day

## CCC=C(C)C(=O)O [2-Methylpent-2-en-1-oic acid]
Pontoscolex corethrurus
  LC50: 2040 mg/kg

## O=[N+]([O-])[O-] [Nitrate]
Canidae
  NOEL: 370 mg/kg-day
Rattus norvegicus; chronic, duration: 2 years, growth
  NOEL: 370 mg/kg-day
Sus scrofa; subchronic, duration: 84 days, Not specified, no effects
  NOAEL: 410 mg/kg-day

## COc1nc(C)nc(N)n1 [2-Methyl-4-amino-6-methoxy-s-triazine]
acute, dermal, F, mortality
  LD50: 1000 mg/kg
acute, inhalation, mortality
  LC50: > 5.2 µg/mL

## COc1cc(CCC(C)=O)ccc1O [4-(4-Hydroxy-3-methoxyphenyl)-2-butanone]
Pontoscolex corethrurus
  LC50: 346 mg/kg

## c1cnc2c(n1)CCCC2 [5,6,7,8-Tetrahydroquinoxaline]
Pontoscolex corethrurus
  LC50: 238 mg/kg

## CCOC(=O)C(CC)C(C)=O (configuration not stated) [Butanoic acid, 2-ethyl-3-oxo-, ethyl ester]
Repeat dose other, development
  NOAEL: 600 mg/kg-day

## Nc1ccc(Cl)c(Cl)c1 [3,4-Dichloroaniline]
Colinus virginianus; mortality
  LD50: 99.1 mg/kg-day

## CCCCCCCCCCCCN(C)C [N,N-Dimethyldodecan-1-amine]
Reproduction developmental
  NOAEL: 50 mg/kg-day
Rattus norvegicus; [1]
  NOAEL: 50 mg/kg-day
Rattus norvegicus; [2]
  NOAEL: 50 mg/kg-day

## CC(c1ccc(C(F)(F)F)nc1)S(C)(=O)=NC#N (configuration not stated) [Sulfoxaflor]
Apis mellifera; duration: 48 hours, oral, unspecified
  LD50: 0.146 µg/piece
Apis mellifera; duration: 72 hours, dermal
  LD50: 0.397 µg/piece

## Cc1ccc(C(C)C)cc1O [Isopropyl-o-cresol]
Sus scrofa; subchronic, duration: 6 weeks, oral, diet, M/F, Not specified, no effects
  LEL: 2000 mg/kg-day

## CSCCC(O)C(=O)[O-].CSCCC(O)C(=O)[O-].[Zn+2] (configuration not stated)
Bovidae
  LEL: 450 mg/kg-day
Gallus gallus; subchronic, duration: 8 weeks, oral, diet, clinical chemistry
  LEL: 450 mg/kg-day
Gallus gallus; subchronic, duration: 35 days, oral, diet, Chicken, body weight
  LEL: 450 mg/kg-day
Sus scrofa; subchronic, duration: 42 days, oral, diet, M/F, Not specified, body weight
  LEL: 450 mg/kg-day

## CS(=O)(=O)c1cc(C(F)(F)F)ccc1C(=O)c1cnoc1C1CC1 [Isoxaflutole]
Oryctolagus sp.; developmental, development
  NOAEL: 5 mg/kg-day
Rattus norvegicus; chronic, duration: 2 years, histopathology: nonneoplastic
  NOAEL: 2 mg/kg-day
Rattus norvegicus; reproduction developmental, organ weight
  NOAEL: 2 mg/kg-day

## O=c1c2cc(F)ccc2nc(-n2cncn2)n1-c1ccc(Cl)cc1Cl [Fluquinconazole]
Anas platyrhynchos; acute, unspecified
  LD50: > 2000 mg/kg-day
Anas platyrhynchos; short-term, feed
  LD50: > 210 mg/kg-day
Colinus virginianus; mortality
  LD50: > 2000 mg/kg-day
Colinus virginianus; chronic
  NOEL: 1.9 mg/kg-day
Rattus norvegicus; mortality
  LD50: > 112 mg/kg-day
Rattus norvegicus; chronic
  NOAEL: 0.9 mg/kg-day

## CCCSP(=O)(OCC)SCCC [Ethoprop]
Colinus virginianus; reproduction developmental, mortality
  NOEL: 0.088 mg/kg-day
Rattus norvegicus; chronic
  NOEL: 7.3 mg/kg-day

## O=S(=O)([O-])c1cc(S(=O)(=O)[O-])c2c(N=Nc3ccc(S(=O)(=O)[O-])c4ccccc34)c(O)ccc2c1.[Na+].[Na+].[Na+] [C.I. Acid Red 18, trisodium salt]
Mus musculus
  NOAEL: 70 mg/kg-day

## CCCC(CCC)C(=O)O [Valproic acid]
Repeat dose other, development
  NOAEL: 600 mg/kg-day

## O=C(O)C(O)Cn1cncn1 (configuration not stated) [Triazole lactic acid]
Oryctolagus sp.; developmental, development
  NOAEL: 30 mg/kg-day

Reference: EPA's ToxValDB 9.5
